In US12448358B2, “Inhibitors of protein arginine deiminase 1 and methods of preparation and use thereof” (University of Massachusetts, priority 2019, dated 2025):
Read-outs that look alike come from different tables or passages of the source.

How the values were obtained:
PAD4 = target: T1, PAD4 (Homo sapiens, UniProt Q9UM07); assay: Inactivation kinetics of PAD4 (COLDER citrulline assay); assay type: biochemical; conditions: for Fold PAD selectivity: bracketed value under kinact/KI; for kinact/KI: marks: * nonlinear fit of kobs versus [I], ‡ linear fit, † single kobs
T1 construct: made in house
T1 sequence (Q9UM07 whole entry): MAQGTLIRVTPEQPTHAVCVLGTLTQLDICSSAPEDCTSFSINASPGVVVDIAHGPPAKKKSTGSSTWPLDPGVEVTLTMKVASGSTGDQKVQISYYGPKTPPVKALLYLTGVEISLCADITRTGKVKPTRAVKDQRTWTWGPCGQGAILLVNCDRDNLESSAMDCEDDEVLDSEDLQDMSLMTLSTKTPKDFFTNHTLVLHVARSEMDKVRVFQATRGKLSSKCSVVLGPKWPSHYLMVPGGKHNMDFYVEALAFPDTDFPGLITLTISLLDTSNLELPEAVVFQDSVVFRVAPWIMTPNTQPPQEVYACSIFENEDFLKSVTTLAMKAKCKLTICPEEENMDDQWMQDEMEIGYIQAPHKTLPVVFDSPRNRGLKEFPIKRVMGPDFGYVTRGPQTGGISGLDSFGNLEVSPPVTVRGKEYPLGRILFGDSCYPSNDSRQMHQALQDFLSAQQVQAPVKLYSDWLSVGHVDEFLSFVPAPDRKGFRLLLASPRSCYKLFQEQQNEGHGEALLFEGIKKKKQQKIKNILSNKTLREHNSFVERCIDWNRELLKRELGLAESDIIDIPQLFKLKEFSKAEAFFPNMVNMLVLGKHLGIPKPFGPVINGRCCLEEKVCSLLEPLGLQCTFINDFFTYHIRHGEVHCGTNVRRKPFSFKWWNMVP
Experimental: (§1) Inactivation kinetics. […] After 15 min, reactions were quenched with liquid nitrogen and the production of citrulline was quantified using the COLDER assay. (Kearney, et al. Biochemistry 2005, 44, 10570-10582; Knipp, et al. Anal. Biochem. 2000, 286, 257-264.) The time-dependence of PAD inhibition was fit to the following equation 1, […] (1), using Grafit, version 5.0.11, where v is velocity, ν0 is initial velocity, k (or kobs is the pseudo-first-order rate constant of inactivation, and t is time. Upon reaching saturation, the concentration dependence of kobs was fit to equation 2, kobs=kinact[I]/(KI+[I]), (2), using Grafit, version 5.0.11, where kinact is the maximal rate of inactivation, KI is the concentration of inhibitor that affords half-maximal inactivation, and [I] is the concentration of inhibitor. When kobs with [I] varied linearly, kinact/KI was determined from the slope of the line. All the experiments were performed at least in duplicate.

PAD1 [1] = target: T2, PAD1 (Homo sapiens, UniProt Q9ULC6); assay: Inactivation kinetics of PAD1 (COLDER citrulline assay); assay type: biochemical; conditions: for kinact / Ki / kinact/KI: PAD1; for Ki: concentration of inhibitor that affords half-maximal inactivation; for kinact/KI: marks: * nonlinear fit of kobs versus [I], ‡ linear fit, † single kobs; for Fold PAD selectivity: PAD1 over the other PADs, bracketed value under kinact/KI
T2 construct: made in house
T2 sequence (Q9ULC6 1-663): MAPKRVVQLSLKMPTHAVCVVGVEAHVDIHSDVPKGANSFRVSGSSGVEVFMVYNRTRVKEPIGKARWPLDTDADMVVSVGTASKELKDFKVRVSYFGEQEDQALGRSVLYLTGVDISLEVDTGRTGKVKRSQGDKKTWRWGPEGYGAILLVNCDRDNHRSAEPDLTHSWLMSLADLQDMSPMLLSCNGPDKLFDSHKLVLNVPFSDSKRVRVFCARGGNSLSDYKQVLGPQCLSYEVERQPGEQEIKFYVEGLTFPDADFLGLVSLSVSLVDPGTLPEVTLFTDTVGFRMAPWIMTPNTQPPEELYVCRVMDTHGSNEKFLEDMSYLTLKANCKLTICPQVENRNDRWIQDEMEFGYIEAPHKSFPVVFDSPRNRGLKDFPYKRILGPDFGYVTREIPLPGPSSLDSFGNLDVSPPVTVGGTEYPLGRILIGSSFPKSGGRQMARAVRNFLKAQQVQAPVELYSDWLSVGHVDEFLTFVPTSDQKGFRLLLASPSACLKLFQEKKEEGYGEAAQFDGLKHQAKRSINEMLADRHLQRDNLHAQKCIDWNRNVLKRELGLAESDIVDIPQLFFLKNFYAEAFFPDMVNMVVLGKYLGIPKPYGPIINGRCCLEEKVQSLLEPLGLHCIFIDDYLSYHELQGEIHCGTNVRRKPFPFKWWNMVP
Experimental: as §1

PAD3 = target: T3, PAD3 (Homo sapiens, UniProt Q9ULW8); assay: Inactivation kinetics of PAD3 (COLDER citrulline assay); assay type: biochemical; conditions: for Fold PAD selectivity: bracketed value under kinact/KI; for kinact/KI: marks: * nonlinear fit of kobs versus [I], ‡ linear fit, † single kobs
T3 construct: made in house
T3 sequence (Q9ULW8 1-664): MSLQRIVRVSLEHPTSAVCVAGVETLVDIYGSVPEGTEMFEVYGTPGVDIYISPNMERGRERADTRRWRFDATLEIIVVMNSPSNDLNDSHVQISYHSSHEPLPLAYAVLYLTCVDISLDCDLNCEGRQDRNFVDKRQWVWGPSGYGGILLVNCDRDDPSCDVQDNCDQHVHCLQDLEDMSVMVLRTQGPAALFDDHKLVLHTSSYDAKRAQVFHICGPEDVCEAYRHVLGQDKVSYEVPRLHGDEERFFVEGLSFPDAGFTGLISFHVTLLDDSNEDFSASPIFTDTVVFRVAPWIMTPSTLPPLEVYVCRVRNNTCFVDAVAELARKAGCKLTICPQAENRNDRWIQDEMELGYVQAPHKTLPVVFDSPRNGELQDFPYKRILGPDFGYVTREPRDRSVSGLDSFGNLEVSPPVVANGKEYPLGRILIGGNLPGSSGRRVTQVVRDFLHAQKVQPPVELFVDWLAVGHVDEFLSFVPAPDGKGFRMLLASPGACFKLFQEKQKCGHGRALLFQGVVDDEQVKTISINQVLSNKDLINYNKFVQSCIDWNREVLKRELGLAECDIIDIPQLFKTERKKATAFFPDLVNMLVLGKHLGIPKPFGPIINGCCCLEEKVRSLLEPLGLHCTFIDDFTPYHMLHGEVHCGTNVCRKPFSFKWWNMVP
Experimental: as §1

PAD2 = target: T4, PAD2 (Homo sapiens, UniProt Q9Y2J8); assay: Inactivation kinetics of PAD2 (COLDER citrulline assay); assay type: biochemical; conditions: for Fold PAD selectivity: bracketed value under kinact/KI; for kinact/KI: marks: * nonlinear fit of kobs versus [I], ‡ linear fit, † single kobs
T4 construct: made in house
T4 sequence (Q9Y2J8 whole entry): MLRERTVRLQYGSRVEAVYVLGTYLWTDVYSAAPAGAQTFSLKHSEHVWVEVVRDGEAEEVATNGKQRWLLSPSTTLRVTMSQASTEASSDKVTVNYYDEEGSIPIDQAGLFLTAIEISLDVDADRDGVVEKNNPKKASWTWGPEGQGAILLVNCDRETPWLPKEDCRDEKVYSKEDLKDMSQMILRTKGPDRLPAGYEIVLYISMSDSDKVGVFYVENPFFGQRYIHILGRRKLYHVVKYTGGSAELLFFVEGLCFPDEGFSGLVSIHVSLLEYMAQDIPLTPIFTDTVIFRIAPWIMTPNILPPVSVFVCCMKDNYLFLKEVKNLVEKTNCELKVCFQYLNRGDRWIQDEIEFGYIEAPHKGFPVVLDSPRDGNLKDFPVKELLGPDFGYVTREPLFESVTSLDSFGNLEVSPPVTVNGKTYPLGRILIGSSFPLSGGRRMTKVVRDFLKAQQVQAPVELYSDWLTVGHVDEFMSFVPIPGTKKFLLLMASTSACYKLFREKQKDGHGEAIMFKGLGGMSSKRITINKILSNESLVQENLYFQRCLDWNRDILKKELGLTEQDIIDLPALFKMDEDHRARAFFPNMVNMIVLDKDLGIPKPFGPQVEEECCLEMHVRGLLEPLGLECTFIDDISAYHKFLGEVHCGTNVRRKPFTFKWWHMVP
Experimental: as §1

HEK293TPAD1 cells = assay: Cytotoxicity studies (XTT) in HEK293TPAD1 cells; assay type: cell-based, human; conditions: cytotoxicity EC50 (XTT, 24 h) over EC50 for histone H3 citrullination
Experimental: Cytotoxicity Studies. HEK293TPAD1 cells were seeded (2×10^4 cells/well) on 96-well plate and were allowed to grow in DMEM (supplemented with 10% heat-inactivated fetal bovine serum, 100 units/mL penicillin, 100 μg/mL streptomycin and 0.15 mg/mL hygromycin B) for 24 h. Cells were then treated with DMSO or various concentrations of inhibitor at 37° C. for 24 h. Activated XTT reagent (ATCC) was added to each well and cells were further incubated at 37° C. for 5 h. Cell viability was measured by recording the absorbance at 475 nm and 660 nm. Equation 3, Y=Bottom+(Top−Bottom)/[1+10^((logEC50-X)*Hillslope)] (3), was used to fit an eight-point dose-response curve to determine the EC50 values for inhibition of cell-proliferation using GraphPad Prism 7.03. Top and Bottom are plateaus of the dose-response curve, X is the log of inhibitor-concentration, Hillslope is the slope factor or Hill slope. All the experiments were performed at least in triplicate.

PAD1 [2] = target: T2, PAD1; assay: Histone H3 citrullination in HEK293TPAD1 cells; assay type: cell-based; conditions: 1 mM CaCl2, 5 μM ionomycin, 3 h, read-out: EC50 of inhibition of histone H3 citrullination
Experimental: The final concentration of DMSO in each well was 1%. […] All the experiments were performed at least in duplicate.

[3] = read-out: kinact/KI (converted)

Row | Fold PAD selectivity (PAD4) | kinact/KI (PAD4) | kinact (PAD1 [1]) [s⁻¹] | Ki (PAD1 [1]) [µM] | kinact/KI (PAD1 [1]) | Fold PAD selectivity (PAD3) | kinact/KI (PAD3) | Fold PAD selectivity (PAD2) | kinact/KI (PAD2) | kinact/KI (PAD4; [3]) [M⁻¹ s⁻¹] | kinact/KI (PAD1 [1]; [3]) [M⁻¹ s⁻¹] | kinact (PAD1 [1]; read-out: kinact (converted)) [s⁻¹] | Fold PAD selectivity (PAD1 [1]) [fold] | kinact/KI (PAD3; [3]) [M⁻¹ s⁻¹] | kinact/KI (PAD2; [3]) [M⁻¹ s⁻¹] | EC50 (PAD1 [2]) [µM] | Structure (SMILES) | Efficacy Index (the ratio of cytotoxicity to EC50) (HEK293TPAD1 cells)
1 | [2] fold | 220 ± 30^† M^−1min^−1 | 0.00517 | 69.2 | 4480 ± 200* M^−1min^−1 | [2] fold | 310 ± 80^† M^−1min^−1 | [1] fold | 130 ± 30^† M^−1min^−1 | – | – | – | – | – | – | – | C#Cc1c(I)cc(C(=O)N[C@@H](CCCNC(=N)CF)c2nc3ccccc3[nH]2)c(O)c1I [Compound 21] | –
2 | [2] fold | – | – | 12.5 | – | [1] fold | – | [1] fold | – | 4.5 | 173 | 0.00217 | 74 | 3.33 | 2.33 | 14.5 | N=C(CF)NCCC[C@H](NC(=O)c1cc(I)cc(I)c1O)c1nc2ccccc2[nH]1 [Compound 1] | 17
3 | [1] fold | – | – | 30.2 | – | [2] fold | – | [1] fold | – | 5 | 221 | 0.00667 | 44 | 11.7 | 5 | 31.8 | N=C(CF)NCCC[C@H](NC(=O)c1cc(I)c(F)c(I)c1O)c1nc2ccccc2[nH]1 [Compound 19] | 10
